Counter-ions that a name gives are not always drawn. Like-named read-outs stand apart in the source and are kept apart here.
Legend:
[1] = test system: rat ileum; assay: In vitro mucosal-to-serosal vancomycin transport, modified Ussing chambers, ileum; assay type: in vitro ADME; settings: 5 mg/ml vancomycin in HEPES buffer
From the text: (§1) We investigated regional variation in permeation of vancomycin (VCM) across various segments of rat intestine and colon in vitro by mounting isolated segments of rat intestine and colon between horizontal modified Ussing chambers. The effects of drug concentration and of addition of a p-glycoprotein inhibitor or permeation enhancer(s) as formulation additives on VCM permeation were also studied in vitro using segments of rat jejunum.
(§2) Methods: A modified Ussing system (Easy mount Ussing system, Physiological Instruments Inc., CA, Item # EM-CSYS-8) with eight sets of chambers was used for all in vitro studies; each set consisted of two parallel diffusion chambers, a heating block for temperature control, needle valves for gas flow adjustment and gas mixing, and Ag/AgCl voltage and current electrodes for measuring transepithelial voltage and for passing current.
(§3) Harvesting of required small intestinal or colon segments of a male rat was performed using experimental procedures described in the literature (Gotoh et al., J Biomol Screen (2005) 10:517-23). The harvested segments of small intestine or colon were mounted on sliders placed between the two horizontal chambers of a modified Ussing system.
(§4) VCM was dissolved in HEPES buffer pH 7.4 (Table 1) previously saturated with 100% O2 or HEPES buffer containing additives selected from permeation enhancer(s) and/or an efflux transport inhibitor (Table 2) to obtain predetermined concentrations of drug and additive(s).
(§5) Drug transport across epithelial membranes of harvested rat small intestine and colon segments, in mucosal-to-serosal (M-to-S) direction, was studied using modified Ussing Chambers. Aliquots of HEPES buffer (5 ml) were initially added to both the mucosal and serosal chambers and allowed to equilibrate for 20 minutes. The HEPES buffer in the mucosal chamber was replaced by a study sample containing VCM alone or VCM and selected additive(s) in HEPES buffer, e.g., 5 mg/mL of VCM dissolved in HEPES buffer containing 10% w/w Labrasol®. Aliquots of 0.5 mL buffer solutions were removed periodically from serosal chambers, and replaced with equal volumes of fresh warm (37±2° C.) HEPES buffer previously saturated with 100% O2. To study the effect of additives in the serosal chamber (i.e., quinidine and sodium decanoate), HEPES buffer containing the selected additive was placed in the serosal chamber and replaced with the same buffer composition during sampling.
(§6) Changes in transepithelial short-circuit current (in micro-Amps) and membrane resistance (in Ohms) as a function of time were monitored continuously during in vitro studies to serve as indicators of tissue viability and drug permeability, respectively. The buffer samples from the receptor chambers were analyzed for VCM content on a high pressure liquid chromatograph (HPLC; Hewlett Packard Model 1100 series).
(§7) The analysis of VCM samples was performed using a reverse phase gradient HPLC method, with a Hypersil BDS C18 column, 5 μm, 150×4.6 mm., mobile phase consisting of 5 mM potassium phosphate monobasic in water (pH 3) as solvent A and acetonitrile as solvent B at a flow rate of 1 ml/min (Farin et al., J Pharm Biomed Anal (1998) 18:367-72). The eluant was monitored by a UV/diode array detector at 280 nm.
(§8) To compare data obtained from different in vitro experiments, the apparent permeability coefficients were calculated using the equation: […]
(§9) Where dQ/dt is the linear appearance rate of mass in receiver compartment, C0 is the initial solute concentration in donor compartment, and A is the surface area (Luo et al., Drug Metab Dispos (2002) 30:763-70).

[2] = as above; assay type: in vitro ADME, rat; settings: male, rat, pH 7.4, 5 mg/ml, HEPES buffer alone
From the text: as §1, §2, §3, §4, §5, §6, §7, §8, §9

[3] = test system: rat colon; assay: In vitro mucosal-to-serosal vancomycin transport, modified Ussing chambers, colon; assay type: in vitro ADME; settings: 5 mg/ml vancomycin in HEPES buffer
From the text: as §1, §2, §3, §4, §5, §6, §7, §8, §9

[4] = as above; assay type: in vitro ADME, rat; settings: male, rat, pH 7.4, 5 mg/ml, HEPES buffer alone
From the text: as §1, §2, §3, §4, §5, §6, §7, §8, §9

[5] = rats, cited from earlier work

## CN[C@H](CC(C)C)C(=O)N[C@H]1C(=O)N[C@@H](CC(N)=O)C(=O)N[C@H]2C(=O)N[C@H]3C(=O)N[C@H](C(=O)N[C@H](C(=O)O)c4cc(O)cc(O)c4-c4cc3ccc4O)[C@H](O)c3ccc(c(Cl)c3)Oc3cc2cc(c3O[C@@H]2O[C@H](CO)[C@@H](O)[C@H](O)[C@H]2O[C@H]2C[C@](C)(N)[C@H](O)[C@H](C)O2)Oc2ccc(cc2Cl)[C@H]1O [Vancomycin hydrochloride]
[1]; 0.5 hr
  Ave. Cumulative Amt VCM Released: 0.00 ± 0.00 µg
[1]; 1.0 hr
  Ave. Cumulative Amt VCM Released: 0.00 ± 0.00 µg
[1]; 1.5 hr
  Ave. Cumulative Amt VCM Released: 2.55 ± 0.67 µg
[1]; 2.0 hr
  Ave. Cumulative Amt VCM Released: 4.31 ± 1.17 µg
[1]; 2.5 hr
  Ave. Cumulative Amt VCM Released: 6.33 ± 1.66 µg
[2]
  Papp at 2.5 hr, 5 mg/ml: 0.38 ± 0.05 ×10⁻⁶ cm/s
[3]; 0.5 hr
  Ave. Cumulative Amt VCM Released: 0.00 ± 0.00 µg
[3]; 1.0 hr
  Ave. Cumulative Amt VCM Released: 0.00 ± 0.00 µg
[3]; 1.5 hr
  Ave. Cumulative Amt VCM Released: 1.93 ± 0.38 µg
[3]; 2.0 hr
  Ave. Cumulative Amt VCM Released: 4.20 ± 0.99 µg
[3]; 2.5 hr
  Ave. Cumulative Amt VCM Released: 7.15 ± 1.82 µg
[4]
  Papp at 2.5 hr, 5 mg/ml: 0.41 ± 0.07 ×10⁻⁶ cm/s
[5]; oral administration of a water-in-oil-in-water (w/o/w) emulsion, VCM in inner aqueous phase
  absolute bioavailability: About 30%
[5]; oral, without any added absorption enhancer or enzyme inhibitor
  absolute bioavailability: less than 5%

— patent US20090111736A1, “Orally-Absorbed Solid Dose Formulation for Vancomycin” (SRI International, priority 2007, published 2009)
